Data from patent publication US20230094952A1, “Method for Culturing Hematopoietic Stem Cells” (Sumitomo Pharma Co., Ltd., priority 2019, published 2023).

Columns and labels:
[1] = system: mouse long-term hematopoietic stem cells; experiment: Combination test with UM171 on mouse long-term hematopoietic stem cells; assay type: cell-based; details: for KLS-positive rate / Viable cell count / mCherry-positive rate: n=2
Description: The cells after classification were seeded in a 96-well plate. A cell culture medium was prepared by adding Stem Cell Factor (SCF, manufactured by PeproTech, Inc.) and Thrombopoietin (TPO, manufactured by PeproTech, Inc.) to StemSpan SFEM culture medium (manufactured by […] Technologies Inc.) and added in advance to a cell culture 96-well plate (manufactured by BD Biosciences) at 100 μL/well, and the cells sorted with the FACS Aria II cell sorter (BD Biosciences) were then seeded at 10 cells/well.
The test compounds each in the form of 10 mM DMSO solution were diluted with the cell culture medium to a final concentration of 1 μM, and added to the cells seeded after classification through medium exchange to a final volume of 200 μL/well. Thereafter, the cells were cultured in a CO2 incubator under conditions of 37° C. and 5% CO2 for 1 week.
After culture, the cells were stained with the antibodies for the surface markers c-Kit and Sca-1, Ter-119, B220, CD3, CD4, CD8a, Gr-1, and CD11b, and the ratio and post-growth cell count of a KLS fraction (c-Kit^+, Lin^−, Sca-1^+) or an mCherry-positive fraction given with use of a FACS Aria II cell sorter were analyzed by using FlowJo (BD Biosciences). The mCherry-positive fraction is a cell fraction expressing the Hoxb5 gene, and the KLS fraction is a cell fraction being c-Kit-positive, Lin-negative, and Sca-1-positive, and includes hematopoietic stem cells and multipotent progenitor cells as main components.
A DMSO solution of artemether was adjusted with the cell culture medium to three final concentrations (0.1 μM, 1 μM, 10 μM), and a DMSO solution of UM171 was adjusted with the cell culture medium to four final concentrations (0.1 μM, 0.3 μM, 1 μM, 3 μM), and cell culture was performed at n=2 by the same method as in Example 1. The cell culture and evaluation criteria were the same as those in Example 2.

[2] = system: mouse long-term hematopoietic stem cells; experiment: Reproducibility and concentration dependence test: 1-week culture of sorted Hoxb5-tri-mCherry mouse long-term hematopoietic stem cells, flow cytometry; assay type: cell-based; details: Table 4, day 7 of culture, n=2
Procedure, shortened: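 Hoxb5-tri-mCherry+ LT-HSCs (Lin−c-Kit+Sca-1+Flk2−CD34−/lo CD150+) were sorted from mouse bone marrow at 10 cells/well into StemSpan SFEM with SCF and TPO. Cells were cultured with compound for 1 week at 37°C, 5% CO2. Flow cytometry then measured KLS and mCherry+ fractions and cell counts.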

[3] = UM171 0.1 μM alone (DMSO, no artemether)
[4] = UM171 0.3 μM alone (DMSO, no artemether)
[5] = UM171 1 μM alone (DMSO, no artemether)
[6] = UM171 3 μM alone (DMSO, no artemether)

For Cn1nnc(-c2ccc3c(c2)[nH]c2nc(Cc4ccccc4)nc(N[C@H]4CC[C@H](N)CC4)c23)n1 [UM171, (1r,4r)-N1-(2-benzyl-7-(2-methyl-2H-tetrazol-5-yl)-9H-pyrimido[4,5-b]indol-4-yl)cyclohexane-1,4-diamine], the KLS-positive rate [1, 3] was 41.0%, the Viable cell count [1, 3] was 508.0 cell and the mCherry-positive rate [1, 3] was 4.7%. It also gave a KLS-positive rate [1, 4] of 71.6%, a Viable cell count [1, 4] of 281.0 cell and a mCherry-positive rate [1, 4] of 17.1%. It also gave a KLS-positive rate [1, 5] of 98.0%, a Viable cell count [1, 5] of 24.5 cell and a mCherry-positive rate [1, 5] of 38.9%. The KLS-positive rate [1, 6] was 82.2%, the Viable cell count [1, 6] was 82.5 cell and the mCherry-positive rate [1, 6] was 16.2%. The “Effect of culture with artemether and UM171 together on mCherry-positive and KLS-positive cell ratios” value ([1]; compared with any one of the substances alone) was “combinational effect”.

C[C@H]1[C@@H](CN)O[C@@H]2O[C@@]3(C)CC[C@H]4[C@H](C)CC[C@@H]1[C@@]24OO3 [Example 1-17, 1-[(3R,5aS,6R,8aS,9R,10S,12R,12aR)-3,6,9-Trimethyldecahydro-12H-3,12-epoxypyrano[4,3-j][1,2]benzodioxepin-10-yl]methanamine] was tested, and the KLS-positive rate ([2]; compound 0.1 μM) was 15.9%, the Viable cell count ([2]; compound 0.1 μM) was 947.0 cell and the mCherry-positive rate ([2]; compound 0.1 μM) was 4.9%. The KLS-positive rate ([2]; compound 0.3 μM) was 16.1%, the Viable cell count ([2]; compound 0.3 μM) was 902.0 cell and the mCherry-positive rate ([2]; compound 0.3 μM) was 2.5%. It also gave a KLS-positive rate ([2]; compound 1 μM) of 19.4%, a Viable cell count ([2]; compound 1 μM) of 641.5 cell and a mCherry-positive rate ([2]; compound 1 μM) of 16.1%. For the same compound, the KLS-positive rate ([2]; compound 3 μM) was 24.0%, the Viable cell count ([2]; compound 3 μM) was 315.0 cell and the mCherry-positive rate ([2]; compound 3 μM) was 70.1%. It also gave a KLS-positive rate ([2]; compound 10 μM) of 51.8%, a Viable cell count ([2]; compound 10 μM) of 80.0 cell and a mCherry-positive rate ([2]; compound 10 μM) of 100.0%.
